The source of these data is ChEMBL document CHEMBL4800727 (2021).

Test [1] concerns the target cAMP and cAMP-inhibited cGMP 3',5'-cyclic phosphodiesterase 10A (Homo sapiens, UniProt Q9Y233). Briefly: In vitro assay with human PDE10A.
For test [2], the target named is Serine/threonine-protein kinase Sgk2 (Homo sapiens) (UniProt Q9HBY8). The experiment in a line: serum/glucocorticoid regulated kinase 2 Millipore kinase panel. To be noted: Compound concentration 10.0 uM.
Test [3] addresses 3',5'-cyclic-AMP phosphodiesterase 4D (Homo sapiens, UniProt Q08499). Briefly: hPDE4D2 Cerep panel. To be noted: Compound concentration 10.0 uM.
Test [4] addresses Mu-type opioid receptor (Homo sapiens) (UniProt P35372). Briefly: hOP3 Cerep panel. Particulars: Compound concentration 10.0 uM; call rule not given here.
Test [5] concerns the target Tyrosine-protein kinase SYK (Homo sapiens) (UniProt P43405). Briefly: spleen tyrosine kinase Millipore kinase panel. Particulars: Compound concentration 10.0 uM.
In test [6] the target is Nociceptin receptor (Homo sapiens) (UniProt P41146). Briefly: hORL1 Cerep panel. Particulars: Compound concentration 10.0 uM.
Test [7] deals with Testis-specific serine/threonine-protein kinase 1 (Homo sapiens) (UniProt Q9BXA7). Briefly: testis-specific serine kinase 1B Millipore kinase panel. To be noted: Compound concentration 10.0 uM.
The target of test [8] is Serine/threonine-protein kinase ULK2 (Homo sapiens) (UniProt Q8IYT8). Briefly: unc-51-like kinase 2 Millipore kinase panel. Particulars: Compound concentration 10.0 uM.
Test [9] concerns the target Ephrin type-B receptor 3 (Homo sapiens) (UniProt P54753). Briefly: EPH receptor B3 Millipore kinase panel. Particulars: Compound concentration 10.0 uM.
In test [10] the target is B2 bradykinin receptor (Homo sapiens) (UniProt P30411). The experiment in a line: hBK2 Cerep panel. Particulars: Compound concentration 10.0 uM.
Test [11] addresses Androgen receptor (Homo sapiens) (UniProt P10275). The experiment in a line: hAR Cerep panel. To be noted: Compound concentration 10.0 uM.
For test [12], the target named is cAMP and cAMP-inhibited cGMP 3',5'-cyclic phosphodiesterase 10A (Mus musculus) (UniProt Q8CA95).
Test [13] has as its target T1, Muscarinic acetylcholine receptor M2 (Homo sapiens) (UniProt P08172).
T1 sequence (whole entry): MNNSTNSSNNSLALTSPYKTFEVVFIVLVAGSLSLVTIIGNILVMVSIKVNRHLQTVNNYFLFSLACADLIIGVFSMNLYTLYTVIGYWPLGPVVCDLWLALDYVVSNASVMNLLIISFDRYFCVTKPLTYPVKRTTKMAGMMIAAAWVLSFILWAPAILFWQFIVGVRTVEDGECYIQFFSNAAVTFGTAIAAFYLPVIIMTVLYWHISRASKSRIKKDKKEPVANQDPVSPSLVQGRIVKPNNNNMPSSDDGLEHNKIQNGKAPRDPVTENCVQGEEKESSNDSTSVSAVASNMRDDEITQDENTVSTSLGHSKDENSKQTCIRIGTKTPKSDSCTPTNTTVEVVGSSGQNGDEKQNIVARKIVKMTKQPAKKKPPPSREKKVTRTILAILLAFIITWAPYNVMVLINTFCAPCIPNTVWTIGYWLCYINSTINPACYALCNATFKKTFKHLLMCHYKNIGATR
Briefly: hM2 Cerep panel. To be noted: Compound concentration 10.0 uM.

The target in test [14] is Histamine H2 receptor (Homo sapiens) (UniProt P25021). Particulars: Compound concentration 10.0 uM.
Test [15] deals with Serine/threonine-protein kinase Chk1 (Homo sapiens) (UniProt O14757). The experiment in a line: CHK1 checkpoint homolog (S. pombe) Millipore kinase panel. To be noted: Compound concentration 10.0 uM.
Test [16] deals with cGMP-inhibited 3',5'-cyclic phosphodiesterase 3A (Homo sapiens, UniProt Q14432). Briefly: hPDE3A Cerep panel. To be noted: Compound concentration 10.0 uM.
Test [17] deals with Proto-oncogene tyrosine-protein kinase receptor Ret (Homo sapiens) (UniProt P07949). The experiment in a line: ret proto-oncogene Millipore kinase panel. To be noted: Compound concentration 10.0 uM.
Test [18] has as its target Protein kinase C iota type (Homo sapiens) (UniProt P41743). Briefly: protein kinase C, iota Millipore kinase panel. Particulars: Compound concentration 10.0 uM.
In test [19] the target is 5'-AMP-activated protein kinase catalytic subunit alpha-2 (Homo sapiens) (UniProt P54646). The experiment in a line: protein kinase, AMP-activated, alpha 2 catalytic subunit Millipore kinase panel. Particulars: Compound concentration 10.0 uM.
Sequence of 5'-AMP-activated protein kinase catalytic subunit alpha-2 (Homo sapiens) (P54646 whole entry, looked up): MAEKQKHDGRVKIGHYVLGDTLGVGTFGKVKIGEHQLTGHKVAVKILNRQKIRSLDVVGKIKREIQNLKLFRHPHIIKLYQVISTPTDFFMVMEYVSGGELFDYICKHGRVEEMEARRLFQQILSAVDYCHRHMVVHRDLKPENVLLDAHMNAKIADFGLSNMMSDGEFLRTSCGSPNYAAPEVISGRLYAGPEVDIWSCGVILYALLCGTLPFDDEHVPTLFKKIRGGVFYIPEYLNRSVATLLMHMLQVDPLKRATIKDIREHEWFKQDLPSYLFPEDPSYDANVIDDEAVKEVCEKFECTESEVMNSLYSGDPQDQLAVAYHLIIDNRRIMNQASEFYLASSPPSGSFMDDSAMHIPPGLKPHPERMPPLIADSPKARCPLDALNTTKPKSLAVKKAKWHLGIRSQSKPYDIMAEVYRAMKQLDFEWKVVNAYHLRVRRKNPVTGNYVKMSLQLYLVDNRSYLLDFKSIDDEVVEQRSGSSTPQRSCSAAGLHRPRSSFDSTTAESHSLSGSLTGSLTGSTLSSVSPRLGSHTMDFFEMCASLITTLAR
Test [20] is described as follows: cML1 Cerep panel. Particulars: Compound concentration 10.0 uM.
Test [21] deals with Serine/threonine-protein kinase Sgk3 (Homo sapiens) (UniProt Q96BR1). The experiment in a line: serum/glucocorticoid regulated kinase family, member 3 Millipore kinase panel. To be noted: Compound concentration 10.0 uM.
The target in test [22] is Ribosomal protein S6 kinase alpha-1 (Homo sapiens) (UniProt Q15418). Briefly: ribosomal protein S6 kinase, 90kDa, polypeptide 1 Millipore kinase panel. To be noted: Compound concentration 10.0 uM.
Test [23] can be described thus: PPAR1C Cerep panel. To be noted: Compound concentration 10.0 uM.
Test [24] is filed under the species Rattus norvegicus. Briefly: rCa channel Cerep panel. To be noted: Compound concentration 10.0 uM.
Test [25] has as its target Mitogen-activated protein kinase 1 (Homo sapiens) (UniProt P28482). Briefly: mitogen-activated protein kinase 1 Millipore kinase panel. Particulars: Compound concentration 10.0 uM.
In test [26] the target is Homeodomain-interacting protein kinase 2 (Homo sapiens) (UniProt Q9H2X6). The experiment in a line: homeodomain interacting protein kinase 2 Millipore kinase panel. To be noted: Compound concentration 10.0 uM.
For test [27], the species on record is Rattus norvegicus. The experiment in a line: rGlutamate (ionotropic) MDL Cerep panel. Particulars: Compound concentration 10.0 uM.
The species named for test [28] is Rattus norvegicus. The experiment in a line: rK_ATP potassium channel Cerep panel. Particulars: Compound concentration 10.0 uM.
Test [29] has as its target RAF proto-oncogene serine/threonine-protein kinase (Homo sapiens) (UniProt P04049). Briefly: v-raf-1 murine leukemia viral oncogene homolog 1 Millipore kinase panel. Particulars: Compound concentration 10.0 uM.
The target of test [30] is Mitogen-activated protein kinase kinase kinase kinase 1 (Homo sapiens) (UniProt Q92918). The experiment in a line: mitogen-activated protein kinase kinase kinase kinase 1 Millipore kinase panel. To be noted: Compound concentration 10.0 uM.
Test [31] addresses Myosin light chain kinase, smooth muscle (Homo sapiens) (UniProt Q15746). Briefly: myosin light chain kinase Millipore kinase panel. To be noted: Compound concentration 10.0 uM.
Test [32] concerns the target BDNF/NT-3 growth factors receptor (Homo sapiens) (UniProt Q16620). The experiment in a line: neurotrophic tyrosine kinase, receptor, type 2 Millipore kinase panel. Particulars: Compound concentration 10.0 uM.
Test [33] addresses Receptor-interacting serine/threonine-protein kinase 2 (Homo sapiens) (UniProt O43353). Briefly: receptor-interacting serine-threonine kinase 2 Millipore kinase panel. To be noted: Compound concentration 10.0 uM.
The target in test [34] is Tyrosine-protein kinase Fyn (Homo sapiens) (UniProt P06241). The experiment in a line: FYN oncogene related to SRC, FGR, YES Millipore kinase panel. To be noted: Compound concentration 10.0 uM.
The species entered for test [35] is Rattus norvegicus. Briefly: rBZD Cerep panel. To be noted: Compound concentration 10.0 uM.
Test [36] concerns the target NUAK family SNF1-like kinase 1 (Homo sapiens) (UniProt O60285). Briefly: NUAK family, SNF1-like kinase, 1 Millipore kinase panel. To be noted: Compound concentration 10.0 uM.
For test [37], the target named is LIM domain kinase 1 (Homo sapiens) (UniProt P53667). Briefly: LIM domain kinase 1 Millipore kinase panel. To be noted: Compound concentration 10.0 uM.
Sequence of LIM domain kinase 1 (Homo sapiens) (P53667 whole entry, looked up, the tested form may be a part): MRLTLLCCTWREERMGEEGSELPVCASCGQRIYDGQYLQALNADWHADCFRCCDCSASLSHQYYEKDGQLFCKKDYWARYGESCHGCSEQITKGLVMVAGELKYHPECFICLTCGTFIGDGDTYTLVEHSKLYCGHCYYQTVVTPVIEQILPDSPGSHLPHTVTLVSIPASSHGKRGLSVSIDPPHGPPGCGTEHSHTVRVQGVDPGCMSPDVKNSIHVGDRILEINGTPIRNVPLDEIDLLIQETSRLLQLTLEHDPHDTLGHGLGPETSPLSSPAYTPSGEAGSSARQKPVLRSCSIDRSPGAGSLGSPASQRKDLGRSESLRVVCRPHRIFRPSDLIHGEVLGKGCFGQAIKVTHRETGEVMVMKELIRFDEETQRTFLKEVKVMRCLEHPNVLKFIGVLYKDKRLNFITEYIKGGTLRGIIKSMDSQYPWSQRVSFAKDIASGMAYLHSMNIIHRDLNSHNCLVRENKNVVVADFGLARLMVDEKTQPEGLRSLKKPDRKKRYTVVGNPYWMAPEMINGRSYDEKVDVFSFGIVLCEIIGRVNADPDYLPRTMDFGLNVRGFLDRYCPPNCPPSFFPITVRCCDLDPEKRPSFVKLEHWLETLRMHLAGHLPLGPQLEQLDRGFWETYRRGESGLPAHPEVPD
For test [38], the target named is Vascular endothelial growth factor receptor 2 (Homo sapiens) (UniProt P35968). The experiment in a line: kinase insert domain receptor Millipore kinase panel. Particulars: Compound concentration 10.0 uM.
In test [39] the target is Misshapen-like kinase 1 (Homo sapiens) (UniProt Q8N4C8). Briefly: misshapen-like kinase 1 Millipore kinase panel. To be noted: Compound concentration 10.0 uM.
Test [40] concerns the target 5-hydroxytryptamine receptor 7 (Homo sapiens, UniProt P34969). Briefly: h5HT7 Cerep panel. Particulars: Compound concentration 10.0 uM.
Test [41] concerns the target SRSF protein kinase 3 (Homo sapiens) (UniProt Q9UPE1). Briefly: SFRS protein kinase 3 Millipore kinase panel. To be noted: Compound concentration 10.0 uM.
The species named for another test is Homo sapiens. The experiment in a line: p21 protein -activated kinase 2 Millipore kinase panel. Particulars: Compound concentration 10.0 uM.
In test [42] the target is Serine/threonine-protein kinase WNK3 (Homo sapiens) (UniProt Q9BYP7). Briefly: WNK lysine deficient protein kinase 3 Millipore kinase panel. To be noted: Compound concentration 10.0 uM.
Test [43] addresses Mitogen-activated protein kinase 13 (Homo sapiens) (UniProt O15264). The experiment in a line: mitogen-activated protein kinase 13 Millipore kinase panel. To be noted: Compound concentration 10.0 uM.
The target in test [44] is Prostaglandin E2 receptor EP4 subtype (Homo sapiens) (UniProt P35408). The experiment in a line: hEP4 Cerep panel. To be noted: Compound concentration 10.0 uM.
Test [45] concerns the target Hepatocyte growth factor receptor (Homo sapiens) (UniProt P08581). Briefly: met proto-oncogene Millipore kinase panel. Particulars: Compound concentration 10.0 uM.

Sequence of Ephrin type-B receptor 3 (Homo sapiens) (P54753 whole entry): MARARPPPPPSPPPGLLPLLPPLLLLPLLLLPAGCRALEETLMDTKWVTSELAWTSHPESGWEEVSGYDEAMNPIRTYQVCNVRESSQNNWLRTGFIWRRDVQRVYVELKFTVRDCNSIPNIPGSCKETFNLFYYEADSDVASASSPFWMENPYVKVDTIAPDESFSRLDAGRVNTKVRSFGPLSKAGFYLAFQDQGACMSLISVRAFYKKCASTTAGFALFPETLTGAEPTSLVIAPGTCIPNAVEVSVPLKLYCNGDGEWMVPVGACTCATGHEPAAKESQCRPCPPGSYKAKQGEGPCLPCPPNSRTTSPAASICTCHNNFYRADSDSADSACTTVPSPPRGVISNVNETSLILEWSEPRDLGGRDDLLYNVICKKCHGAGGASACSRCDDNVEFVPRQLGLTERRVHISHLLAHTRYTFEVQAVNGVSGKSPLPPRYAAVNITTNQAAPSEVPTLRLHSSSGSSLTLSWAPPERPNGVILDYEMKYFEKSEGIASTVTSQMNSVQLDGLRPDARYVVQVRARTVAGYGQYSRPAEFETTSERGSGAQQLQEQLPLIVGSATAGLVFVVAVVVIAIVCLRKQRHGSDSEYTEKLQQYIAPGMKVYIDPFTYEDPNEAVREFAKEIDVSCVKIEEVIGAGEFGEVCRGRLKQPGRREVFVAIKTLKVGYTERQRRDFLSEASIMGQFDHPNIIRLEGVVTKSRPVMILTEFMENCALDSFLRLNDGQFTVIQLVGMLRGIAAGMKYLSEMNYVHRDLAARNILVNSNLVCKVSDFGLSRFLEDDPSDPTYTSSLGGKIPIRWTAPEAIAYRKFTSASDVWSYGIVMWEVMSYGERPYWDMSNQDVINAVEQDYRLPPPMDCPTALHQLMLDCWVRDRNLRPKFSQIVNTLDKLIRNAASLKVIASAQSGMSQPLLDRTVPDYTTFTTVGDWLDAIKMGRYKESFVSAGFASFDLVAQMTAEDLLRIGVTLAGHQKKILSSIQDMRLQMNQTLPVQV
Sequence of Myosin light chain kinase, smooth muscle (Homo sapiens) (Q15746 whole entry): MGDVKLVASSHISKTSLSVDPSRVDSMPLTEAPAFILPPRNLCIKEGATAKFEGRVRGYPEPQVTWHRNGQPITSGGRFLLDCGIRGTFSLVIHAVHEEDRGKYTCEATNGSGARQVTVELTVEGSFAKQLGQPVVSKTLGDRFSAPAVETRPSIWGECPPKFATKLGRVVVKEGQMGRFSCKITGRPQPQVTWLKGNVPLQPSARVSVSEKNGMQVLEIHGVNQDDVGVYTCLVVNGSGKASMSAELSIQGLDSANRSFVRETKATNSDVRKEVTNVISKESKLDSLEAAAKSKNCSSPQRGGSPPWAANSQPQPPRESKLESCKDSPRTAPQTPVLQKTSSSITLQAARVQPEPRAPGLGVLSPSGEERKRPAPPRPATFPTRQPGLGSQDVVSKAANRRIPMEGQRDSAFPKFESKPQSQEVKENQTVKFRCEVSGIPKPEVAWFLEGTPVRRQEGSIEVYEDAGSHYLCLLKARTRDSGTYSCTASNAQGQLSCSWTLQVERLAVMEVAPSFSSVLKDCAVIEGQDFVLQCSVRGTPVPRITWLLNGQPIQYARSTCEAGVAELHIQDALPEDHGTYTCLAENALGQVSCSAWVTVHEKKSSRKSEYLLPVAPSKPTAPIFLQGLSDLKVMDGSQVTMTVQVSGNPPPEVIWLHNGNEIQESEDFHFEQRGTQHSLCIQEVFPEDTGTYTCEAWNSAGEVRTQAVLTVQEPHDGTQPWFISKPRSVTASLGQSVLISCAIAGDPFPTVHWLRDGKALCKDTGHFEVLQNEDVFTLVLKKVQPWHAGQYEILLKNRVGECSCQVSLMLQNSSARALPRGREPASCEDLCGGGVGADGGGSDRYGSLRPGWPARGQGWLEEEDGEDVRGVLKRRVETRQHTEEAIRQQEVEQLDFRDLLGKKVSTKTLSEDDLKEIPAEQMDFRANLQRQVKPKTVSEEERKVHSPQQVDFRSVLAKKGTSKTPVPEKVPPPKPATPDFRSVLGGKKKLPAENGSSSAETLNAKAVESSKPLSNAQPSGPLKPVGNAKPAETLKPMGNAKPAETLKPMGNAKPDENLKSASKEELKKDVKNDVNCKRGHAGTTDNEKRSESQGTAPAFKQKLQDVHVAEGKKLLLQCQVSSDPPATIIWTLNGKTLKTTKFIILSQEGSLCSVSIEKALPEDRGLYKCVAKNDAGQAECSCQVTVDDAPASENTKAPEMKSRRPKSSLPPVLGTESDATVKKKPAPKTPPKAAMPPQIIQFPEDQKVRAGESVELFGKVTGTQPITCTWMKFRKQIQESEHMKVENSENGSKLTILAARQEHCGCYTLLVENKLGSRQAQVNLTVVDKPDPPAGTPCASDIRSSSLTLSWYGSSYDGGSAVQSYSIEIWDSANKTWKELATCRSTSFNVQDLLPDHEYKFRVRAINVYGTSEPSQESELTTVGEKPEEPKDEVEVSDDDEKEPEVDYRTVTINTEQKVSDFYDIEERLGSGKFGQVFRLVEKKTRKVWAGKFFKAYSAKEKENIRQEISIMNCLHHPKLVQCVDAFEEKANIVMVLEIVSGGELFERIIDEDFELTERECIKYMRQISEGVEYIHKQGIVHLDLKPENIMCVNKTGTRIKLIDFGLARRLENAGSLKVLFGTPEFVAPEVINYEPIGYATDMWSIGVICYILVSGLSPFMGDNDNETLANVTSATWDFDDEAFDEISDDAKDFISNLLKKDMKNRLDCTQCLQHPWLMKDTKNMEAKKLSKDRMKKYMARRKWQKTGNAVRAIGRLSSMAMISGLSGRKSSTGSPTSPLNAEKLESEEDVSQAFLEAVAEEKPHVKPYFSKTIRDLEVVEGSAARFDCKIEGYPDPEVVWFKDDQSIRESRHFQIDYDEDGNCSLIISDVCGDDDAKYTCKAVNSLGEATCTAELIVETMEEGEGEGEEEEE
Sequence of NUAK family SNF1-like kinase 1 (Homo sapiens) (O60285 whole entry, the tested form may be a part): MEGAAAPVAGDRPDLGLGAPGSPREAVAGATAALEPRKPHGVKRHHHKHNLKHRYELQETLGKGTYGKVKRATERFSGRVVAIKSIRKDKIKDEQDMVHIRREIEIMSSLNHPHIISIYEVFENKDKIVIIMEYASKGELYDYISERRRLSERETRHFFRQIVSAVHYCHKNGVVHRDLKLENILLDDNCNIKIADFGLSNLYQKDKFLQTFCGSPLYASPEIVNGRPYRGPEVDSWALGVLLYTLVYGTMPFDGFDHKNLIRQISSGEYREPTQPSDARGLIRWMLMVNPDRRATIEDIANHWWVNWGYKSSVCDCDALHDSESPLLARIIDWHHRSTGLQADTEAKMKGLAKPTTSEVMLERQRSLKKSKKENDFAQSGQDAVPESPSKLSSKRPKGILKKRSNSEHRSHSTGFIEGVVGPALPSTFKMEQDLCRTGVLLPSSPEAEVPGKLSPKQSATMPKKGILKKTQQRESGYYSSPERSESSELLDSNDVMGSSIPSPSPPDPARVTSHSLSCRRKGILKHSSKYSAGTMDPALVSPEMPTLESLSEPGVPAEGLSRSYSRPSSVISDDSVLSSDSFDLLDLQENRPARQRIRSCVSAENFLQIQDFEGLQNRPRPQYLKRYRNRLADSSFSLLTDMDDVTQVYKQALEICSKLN

Regarding `c1ccc(C2CCN(c3cnc4c(N5CCOCC5)nccn34)CC2)cc1`, in test [1], the IC50 (as a rule, the concentration that gives 50% inhibition) is on record as > 10 µM (not active).
Turning to `COCCc1ccc(-c2c(C)nc3c(N4CCOCC4)ccnn23)cn1` [JNJ-42396302], the inhibition (usually the relative decrease from the control value, in per cent) in [2] is -3%; in test [5], -7%; in [7], 2%; in [8], 6%; in test [9], 3%; in test [14], 12.9%. Further, the inhibition in [15] is -9%; in test [17] it was 5%; in test [18] it was 3%; in test [19], 2%; in [21], 1%; in test [22] it was 9%. Further, the inhibition in test [25] was 1%; in test [26], 0%; in [29] it was 10%; in test [30], 5.53%; in test [31], 2%; in test [32] it was -5%. Also, the inhibition is -6% in test [33]; 3% in test [34]; 7% in test [36]; -3% in test [37]; -4% in test [38]; 9% in test [39]. In addition, the inhibition in test [41] is -6%; in the test filed under Homo sapiens, -3%; in test [42], 0%; in test [43], 4%; in [45], -6%. Besides, the effect in test [3] is 27.3%; in test [4], 2.15%; in test [6], 2.15%; in [10] it was 7.1%; in [11], -13.8%; in [13] it was 11%. In addition, the effect in [16] is 6%; in test [20], -4.5%; in [23], -2.05%; in the test filed under Rattus norvegicus [24], 4.75%; in the test filed under Rattus norvegicus [27], -6.2%; in the test listed under Rattus norvegicus [28], 2.9%. For the same compound, the effect was determined as 41.5% in the test filed under Rattus norvegicus [35], 8.6% in test [40] and 13.6% in test [44]. Besides, the Increase in cAMP in test [12] is 2.3 fold.
